The test system of one assay is Fusarium graminearum. As to the kind of experiment: Antimicrobial activity against Fusarium graminearum at 50 microg/disk by disc diffusion assay. The class given is functional, organism-based. The settings on record: dose 50.0 µg/disk. (In general: A growth-free zone around the sample is the usual read-out of agar diffusion tests.)
Another assay concerns Pythium aphanidermatum. Kind of assay: Antimicrobial activity against Pythium aphanidermatum at 50 microg/disk by disc diffusion assay. Format: functional, organism-based. The settings on record: dose 50.0 µg/disk.
The test system of a further assay is Bacillus subtilis. Kind of assay: Antimicrobial activity against Bacillus subtilis at 20 microg/disk by disc diffusion assay. The class given is functional, organism-based. Particulars: dose 20.0 µg/disk.
A further assay concerns Streptomyces sp. As to the kind of experiment: Antimicrobial activity against Streptomyces sp. S001 at 20 microg/disk by disc diffusion assay. Format: functional, organism-based. Particulars: dose 20.0 µg/disk.
The next assay deals with Xanthomonas oryzae. As to the kind of experiment: Antimicrobial activity against Xanthomonas oryzae pv. oryzicola RS105 at 20 microg/disk by disc diffusion assay. The class given is functional. Particulars: dose 20.0 µg/disk.
A further assay relates to Salmonella typhimurium. Kind of assay: Antimicrobial activity against Salmonella enterica serovar Typhimurium UK-1 x8956 at 20 microg/disk by disc diffusion assay. Format: functional, organism-based. Particulars: Salmonella enterica subsp. enterica serovar Typhimurium, dose 20.0 µg/disk.
The subject of the next assay is Staphylococcus aureus. Kind of assay: Antimicrobial activity against Staphylococcus aureus ATCC 25923 at 20 microg/disk by disc diffusion assay. The class given is functional, organism-based. The settings on record: dose 20.0 µg/disk.
The test system of another assay is A549. As to the kind of experiment: Cytotoxicity against human A549 cells assessed as reduction in cell viability by MTT assay. The class given is functional, cell-based. On the technique in general: Tetrazolium dyes change colour on reduction, which living cells bring about.
A further assay deals with MIA PaCa-2. As to the kind of experiment: Cytotoxicity against human MIA PaCa-2 cells assessed as reduction in cell viability by MTT assay. Format: functional, cell-based.

The structures appear in SMILES notation. pIC50: −log10 of the molar value. The source made the active and inactive calls. No cut-off for these calls is given here.

With `CC(=O)[C@H]1[C@@H]2C=C[C@@H]3/C=C/C=C/C(=O)NCC[C@H](O)[C@@H]4NC(=O)C(=C4O)C(=O)/C=C/C=C/[C@@H]3[C@H]2C[C@H]1C`, the outcome in the assay with Fusarium graminearum, in the assay on Pythium aphanidermatum, in the assay on Bacillus subtilis, in the assay on Streptomyces sp., in the assay on Xanthomonas oryzae and with Salmonella typhimurium was inactive. Further, the result in the assay with Staphylococcus aureus was inactive.
Broadly, the pIC50 is the negative decadic logarithm of the IC50, by convention in mol/L. For the compound `CC(=O)[C@H]1[C@@H]2C=C[C@@H]3[C@H]4C/C=C\C(=O)NCCC[C@@H]5NC(=O)C(=C5O)C(=O)/C=C/[C@@H]4C[C@@H]3[C@H]2C[C@H]1C`, the outcome with Fusarium graminearum, with Pythium aphanidermatum, in the assay with Bacillus subtilis, in the assay with Streptomyces sp., in the assay with Xanthomonas oryzae and in the assay on Salmonella typhimurium was inactive. Besides, the result with Staphylococcus aureus was inactive. Further, the pIC50 is 5.85 with A549 and 5.62 in the assay with MIA PaCa-2.
For the compound `COc1cccc2c1C(=O)c1c(O)c3c(c(O)c1C2=O)C[C@@](O)(C(=O)CO)C[C@@H]3O[C@H]1C[C@H](N)[C@H](O)[C@H](C)O1` [DOXORUBICIN], the pIC50 in the assay with MIA PaCa-2 is 6.37.
On to `C[C@@H]1C[C@H]2[C@@H](C=C[C@@H]3[C@H]4C/C=C\C(=O)NCC[C@H](O)[C@@H]5NC(=O)C(=C5O)C(=O)/C=C/[C@@H]4C[C@@H]32)[C@@H]1C(=O)CO`, for which the outcome in the assay with Fusarium graminearum, in the assay on Pythium aphanidermatum, in the assay on Bacillus subtilis, in the assay with Streptomyces sp., with Xanthomonas oryzae and in the assay on Salmonella typhimurium was inactive. For the same compound, the result in the assay on Staphylococcus aureus was inactive.
For `CC(=O)[C@H]1[C@@H]2C=C[C@H](/C=C/C=C/C(N)=O)[C@H](/C=C/C=C/C(=O)C3=C(O)[C@H](CCC(=O)O)NC3=O)[C@H]2C[C@H]1C`, the outcome with Fusarium graminearum, in the assay on Pythium aphanidermatum, with Bacillus subtilis, with Streptomyces sp., in the assay with Xanthomonas oryzae and with Salmonella typhimurium was inactive. For the same compound, the result in the assay on Staphylococcus aureus was inactive. Besides, the pIC50 in the assay with MIA PaCa-2 was 5.02.
Take `CC(=O)[C@H]1[C@@H]2C=C[C@@H]3/C=C/C=C/C(=O)NCCC[C@@H]4NC(=O)C(=C4O)C(=O)/C=C/C=C/[C@@H]3[C@H]2C[C@H]1C`: the outcome with Fusarium graminearum, with Pythium aphanidermatum, in the assay on Bacillus subtilis, in the assay with Streptomyces sp., with Xanthomonas oryzae and with Salmonella typhimurium was inactive. The outcome in the assay with Staphylococcus aureus was inactive.
`CC(=O)[C@H]1[C@@H]2C=C[C@@H]3[C@@H](C/C=C\C(N)=O)[C@H](/C=C/C(=O)C4=C(O)[C@H](CCC(=O)O)NC4=O)C[C@@H]3[C@H]2C[C@H]1C`: the result in the assay with Fusarium graminearum, with Pythium aphanidermatum, with Bacillus subtilis, in the assay on Streptomyces sp., in the assay with Xanthomonas oryzae and in the assay with Salmonella typhimurium was inactive. In addition, in the assay with Staphylococcus aureus, the result was inactive.
With `CC[C@H]1[C@@H]2C=C[C@H](/C=C/C=C/C(N)=O)[C@H](/C=C/C=C/C(=O)C3=C(O)[C@H](CCC(=O)O)NC3=O)[C@H]2C[C@H]1C`, the outcome in the assay with Fusarium graminearum, in the assay on Pythium aphanidermatum, in the assay on Bacillus subtilis, in the assay with Streptomyces sp., in the assay on Xanthomonas oryzae and in the assay on Salmonella typhimurium was inactive. Further, in the assay with Staphylococcus aureus, the outcome was inactive.
`CC(=O)[C@H]1[C@@H]2C=C[C@@H]3[C@H]4C/C=C\C(=O)NCC[C@H](O)[C@@H]5NC(=O)C(=C5O)C(=O)/C=C/[C@@H]4C[C@@H]3[C@H]2C[C@H]1C`: the outcome in the assay with Fusarium graminearum, in the assay with Pythium aphanidermatum, in the assay with Bacillus subtilis, in the assay with Streptomyces sp., with Xanthomonas oryzae and with Salmonella typhimurium was inactive. Also, the outcome in the assay with Staphylococcus aureus was inactive. Besides, the pIC50 in the assay with A549 is 6.28; with MIA PaCa-2, 6.00.
As for `CC(O)[C@H]1[C@@H]2C=C[C@@H]3/C=C/C=C/C(=O)NCC[C@H](O)[C@@H]4NC(=O)C(=C4O)C(=O)/C=C/C=C/[C@@H]3[C@H]2C[C@H]1C` (some centres undefined), the outcome in the assay with Fusarium graminearum, with Pythium aphanidermatum, in the assay with Bacillus subtilis, with Streptomyces sp., with Xanthomonas oryzae and in the assay with Salmonella typhimurium was inactive. Besides, in the assay with Staphylococcus aureus, the result was inactive.
